Measured values taken from PMC4026310 (Drug Design, Development and Therapy, 2014).

Tests used:
[1] = test system: liver; experiment: In situ liver perfusion; type: in vivo, Sprague Dawley rats; conditions: rat in situ liver perfusion, within 120 minutes
[2] = test system: P-gp; conditions: patients receiving quinidine (P-gp inhibitor) treatment; cited from earlier work

Effect of inhibitor on the elimination rate of periplocin in the perfusate [1] | Compound | Patients showing an obvious increase in the blood concentration of digoxin [2] [%]
significantly reduced | CO[C@H]1/C=C/O[C@@]2(C)Oc3c(C)c(O)c4c(O)c(c(/C=N/N5CCN(C)CC5)c(O)c4c3C2=O)NC(=O)/C(C)=C\C=C\[C@H](C)[C@H](O)[C@@H](C)[C@@H](O)[C@@H](C)[C@H](OC(C)=O)[C@@H]1C [rifampicin] | –
– | C=C[C@H]1C[N@@]2CC[C@H]1C[C@@H]2[C@@H](O)c1ccnc2ccc(OC)cc12 [quinidine] | 90
